Measurements as given in patent US10710978B2, “STK4 inhibitors for treatment of hematologic malignancies” (Dana-Farber Cancer Institute, Inc., priority 2015, dated 2020).
Where two headings read alike, the source gives them in different places.

How the values were obtained:
p38d, p38g = test: KiNativ assay; type: binding; settings: H929 live cell
Procedure: (§1) Biochemical IC50s of the compounds of the present disclosure against various kinases were measured in a KiNativ assay. Compounds were screened in duplicate at 10 μM in H929 live cell. IC50 was measured via Mass spectroscopy (MS).

NEK9 = NEK9 (Homo sapiens (Human), UniProt Q8TD19); test: KiNativ assay; type: binding; settings: H929 live cell
Sequence of NEK9 (Q8TD19 whole entry): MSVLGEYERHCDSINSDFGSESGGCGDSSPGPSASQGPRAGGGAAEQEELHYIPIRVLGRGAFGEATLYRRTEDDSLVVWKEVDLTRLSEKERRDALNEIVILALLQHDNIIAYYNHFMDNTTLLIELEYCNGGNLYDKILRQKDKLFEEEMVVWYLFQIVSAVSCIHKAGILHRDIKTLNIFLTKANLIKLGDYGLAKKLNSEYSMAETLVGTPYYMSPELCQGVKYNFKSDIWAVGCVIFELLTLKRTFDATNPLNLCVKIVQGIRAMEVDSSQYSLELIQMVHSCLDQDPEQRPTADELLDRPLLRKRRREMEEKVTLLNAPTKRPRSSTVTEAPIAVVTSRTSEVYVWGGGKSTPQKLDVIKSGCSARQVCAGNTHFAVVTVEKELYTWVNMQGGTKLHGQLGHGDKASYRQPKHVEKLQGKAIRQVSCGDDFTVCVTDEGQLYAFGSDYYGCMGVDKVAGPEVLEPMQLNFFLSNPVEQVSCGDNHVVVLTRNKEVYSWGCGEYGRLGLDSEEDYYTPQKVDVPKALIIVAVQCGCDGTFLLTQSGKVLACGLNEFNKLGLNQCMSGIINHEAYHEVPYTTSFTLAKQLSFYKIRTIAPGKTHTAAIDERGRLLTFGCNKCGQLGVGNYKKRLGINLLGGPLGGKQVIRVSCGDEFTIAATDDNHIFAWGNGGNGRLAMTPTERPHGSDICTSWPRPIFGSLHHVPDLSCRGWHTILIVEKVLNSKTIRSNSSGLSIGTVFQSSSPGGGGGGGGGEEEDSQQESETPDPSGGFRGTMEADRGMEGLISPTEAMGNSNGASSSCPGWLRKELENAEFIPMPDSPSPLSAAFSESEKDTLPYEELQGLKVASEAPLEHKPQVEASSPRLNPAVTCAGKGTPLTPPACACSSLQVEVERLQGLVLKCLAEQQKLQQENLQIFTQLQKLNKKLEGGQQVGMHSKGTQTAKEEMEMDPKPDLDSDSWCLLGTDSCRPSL
Procedure: as §1

MSK2 domain1 = MSK2 domain1 (Homo sapiens (Human), UniProt O75676); test: KiNativ assay; type: binding; settings: H929 live cell
Procedure: as §1

RSK1 domain2 = RSK1 domain2 (Homo sapiens (Human), UniProt Q15418); test: KiNativ assay; type: binding; settings: H929 live cell
Procedure: as §1

p70S6K = p70S6K (Homo sapiens (Human), UniProt P23443); test: KiNativ assay; type: binding; settings: H929 live cell
Procedure: as §1

CLK2 = CLK2 (Homo sapiens (Human), UniProt P49760); test: KiNativ assay; type: binding; settings: H929 live cell
Procedure: as §1

MSK1 domain1 = MSK1 domain1 (Homo sapiens (Human), UniProt O75582); test: KiNativ assay; type: binding; settings: H929 live cell
Procedure: as §1

p70S6Kb = p70S6Kb (Homo sapiens (Human), UniProt Q9UBS0); test: KiNativ assay; type: binding; settings: H929 live cell
Procedure: as §1

STLK6 = STLK6 (Homo sapiens (Human), UniProt Q9C0K7); test: KiNativ assay; type: binding; settings: H929 live cell
Sequence of STLK6 (Q9C0K7 whole entry): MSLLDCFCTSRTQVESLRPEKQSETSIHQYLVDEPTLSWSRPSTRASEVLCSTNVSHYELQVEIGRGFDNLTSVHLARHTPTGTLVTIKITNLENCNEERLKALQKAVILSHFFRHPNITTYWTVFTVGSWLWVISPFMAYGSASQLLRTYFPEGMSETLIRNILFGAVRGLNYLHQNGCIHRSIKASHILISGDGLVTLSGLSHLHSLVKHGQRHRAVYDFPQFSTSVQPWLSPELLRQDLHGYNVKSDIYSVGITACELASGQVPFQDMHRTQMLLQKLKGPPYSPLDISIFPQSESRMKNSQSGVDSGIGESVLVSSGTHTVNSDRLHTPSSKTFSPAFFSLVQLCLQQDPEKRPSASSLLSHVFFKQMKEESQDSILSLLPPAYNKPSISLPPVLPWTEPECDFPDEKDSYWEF
Procedure: as §1

MAP3K4 = MAP3K4 (Homo sapiens (Human), UniProt Q9Y6R4); test: KiNativ assay; type: binding; settings: H929 live cell
Procedure: as §1

Wnk1, Wnk2, Wnk3 = test: KiNativ assay; type: binding; settings: H929 live cell
Procedure: as §1

MAP3K5 = MAP3K5 (Homo sapiens (Human), UniProt Q99683); test: KiNativ assay; type: binding; settings: H929 live cell
Sequence of MAP3K5 (Q99683 whole entry): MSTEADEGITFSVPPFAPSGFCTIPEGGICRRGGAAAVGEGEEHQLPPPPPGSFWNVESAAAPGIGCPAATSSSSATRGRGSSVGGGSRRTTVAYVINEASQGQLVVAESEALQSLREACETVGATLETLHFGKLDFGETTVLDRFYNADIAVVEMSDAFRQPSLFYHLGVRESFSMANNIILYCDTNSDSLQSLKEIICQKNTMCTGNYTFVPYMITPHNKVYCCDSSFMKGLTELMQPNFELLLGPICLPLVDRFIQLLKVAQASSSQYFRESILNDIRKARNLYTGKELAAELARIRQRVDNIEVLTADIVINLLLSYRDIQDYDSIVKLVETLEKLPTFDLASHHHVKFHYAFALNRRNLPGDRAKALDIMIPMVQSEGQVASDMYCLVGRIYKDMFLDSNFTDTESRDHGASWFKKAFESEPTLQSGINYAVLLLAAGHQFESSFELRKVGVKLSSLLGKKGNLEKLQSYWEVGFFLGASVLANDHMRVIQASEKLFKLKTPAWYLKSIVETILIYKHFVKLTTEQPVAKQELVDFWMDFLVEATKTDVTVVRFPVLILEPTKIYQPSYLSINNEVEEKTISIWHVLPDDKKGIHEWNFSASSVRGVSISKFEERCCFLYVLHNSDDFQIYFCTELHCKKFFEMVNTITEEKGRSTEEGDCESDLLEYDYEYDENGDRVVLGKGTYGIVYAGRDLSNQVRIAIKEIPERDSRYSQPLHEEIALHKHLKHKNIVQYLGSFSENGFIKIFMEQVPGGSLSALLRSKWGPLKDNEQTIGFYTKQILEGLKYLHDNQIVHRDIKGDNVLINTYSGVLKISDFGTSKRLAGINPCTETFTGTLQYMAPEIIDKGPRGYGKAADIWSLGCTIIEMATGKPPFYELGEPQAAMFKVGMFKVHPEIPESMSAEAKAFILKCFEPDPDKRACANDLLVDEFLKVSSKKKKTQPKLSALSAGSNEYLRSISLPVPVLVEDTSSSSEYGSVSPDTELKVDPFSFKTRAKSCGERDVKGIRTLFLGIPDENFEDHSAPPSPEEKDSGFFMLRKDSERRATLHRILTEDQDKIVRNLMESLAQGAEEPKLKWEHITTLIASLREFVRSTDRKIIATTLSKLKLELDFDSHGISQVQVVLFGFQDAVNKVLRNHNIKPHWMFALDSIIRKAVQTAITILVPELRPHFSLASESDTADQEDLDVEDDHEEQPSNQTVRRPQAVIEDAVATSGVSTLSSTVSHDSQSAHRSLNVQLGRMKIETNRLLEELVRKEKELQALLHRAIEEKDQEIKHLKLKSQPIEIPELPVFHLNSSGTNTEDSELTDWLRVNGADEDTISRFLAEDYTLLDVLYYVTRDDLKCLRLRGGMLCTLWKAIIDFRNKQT
Procedure: as §1

MST2 = MST2 (Homo sapiens (Human), UniProt Q13188); test: KiNativ assay; type: binding; settings: H929 live cell
Procedure: as §1

MST3 = MST3 (Homo sapiens (Human), UniProt Q9Y6E0); test: KiNativ assay; type: binding; settings: H929 live cell
Procedure: as §1

RSK2 domain1 = RSK2 domain1 (Homo sapiens (Human), UniProt P51812); test: KiNativ assay; type: binding; settings: H929 live cell
Procedure: as §1

TAO1, TAO3 = test: KiNativ assay; type: binding; settings: H929 live cell
Procedure: as §1

Erk1 = Erk1 (Homo sapiens (Human), UniProt P27361); test: KiNativ assay; type: binding; settings: H929 live cell
Sequence of Erk1 (P27361 whole entry): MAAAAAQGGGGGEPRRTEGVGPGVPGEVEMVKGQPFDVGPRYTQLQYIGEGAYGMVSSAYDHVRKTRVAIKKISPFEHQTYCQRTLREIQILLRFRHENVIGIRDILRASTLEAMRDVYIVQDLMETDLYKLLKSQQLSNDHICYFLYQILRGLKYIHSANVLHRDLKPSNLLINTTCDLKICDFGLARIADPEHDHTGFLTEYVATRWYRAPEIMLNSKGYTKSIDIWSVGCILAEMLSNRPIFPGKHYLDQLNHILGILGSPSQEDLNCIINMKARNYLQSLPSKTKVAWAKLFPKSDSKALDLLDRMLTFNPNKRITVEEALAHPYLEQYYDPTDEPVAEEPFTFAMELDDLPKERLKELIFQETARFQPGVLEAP
Procedure: as §1

SNRK = SNRK (Homo sapiens (Human), UniProt Q9NRH2); test: KiNativ assay; type: binding; settings: H929 live cell
Procedure: as §1

MARK2 = MARK2 (Homo sapiens (Human), UniProt Q7KZI7); test: KiNativ assay; type: binding; settings: H929 live cell
Procedure: as §1

SLK = SLK (Homo sapiens (Human), UniProt Q9H2G2); test: KiNativ assay; type: binding; settings: H929 live cell
Sequence of SLK (Q9H2G2 whole entry): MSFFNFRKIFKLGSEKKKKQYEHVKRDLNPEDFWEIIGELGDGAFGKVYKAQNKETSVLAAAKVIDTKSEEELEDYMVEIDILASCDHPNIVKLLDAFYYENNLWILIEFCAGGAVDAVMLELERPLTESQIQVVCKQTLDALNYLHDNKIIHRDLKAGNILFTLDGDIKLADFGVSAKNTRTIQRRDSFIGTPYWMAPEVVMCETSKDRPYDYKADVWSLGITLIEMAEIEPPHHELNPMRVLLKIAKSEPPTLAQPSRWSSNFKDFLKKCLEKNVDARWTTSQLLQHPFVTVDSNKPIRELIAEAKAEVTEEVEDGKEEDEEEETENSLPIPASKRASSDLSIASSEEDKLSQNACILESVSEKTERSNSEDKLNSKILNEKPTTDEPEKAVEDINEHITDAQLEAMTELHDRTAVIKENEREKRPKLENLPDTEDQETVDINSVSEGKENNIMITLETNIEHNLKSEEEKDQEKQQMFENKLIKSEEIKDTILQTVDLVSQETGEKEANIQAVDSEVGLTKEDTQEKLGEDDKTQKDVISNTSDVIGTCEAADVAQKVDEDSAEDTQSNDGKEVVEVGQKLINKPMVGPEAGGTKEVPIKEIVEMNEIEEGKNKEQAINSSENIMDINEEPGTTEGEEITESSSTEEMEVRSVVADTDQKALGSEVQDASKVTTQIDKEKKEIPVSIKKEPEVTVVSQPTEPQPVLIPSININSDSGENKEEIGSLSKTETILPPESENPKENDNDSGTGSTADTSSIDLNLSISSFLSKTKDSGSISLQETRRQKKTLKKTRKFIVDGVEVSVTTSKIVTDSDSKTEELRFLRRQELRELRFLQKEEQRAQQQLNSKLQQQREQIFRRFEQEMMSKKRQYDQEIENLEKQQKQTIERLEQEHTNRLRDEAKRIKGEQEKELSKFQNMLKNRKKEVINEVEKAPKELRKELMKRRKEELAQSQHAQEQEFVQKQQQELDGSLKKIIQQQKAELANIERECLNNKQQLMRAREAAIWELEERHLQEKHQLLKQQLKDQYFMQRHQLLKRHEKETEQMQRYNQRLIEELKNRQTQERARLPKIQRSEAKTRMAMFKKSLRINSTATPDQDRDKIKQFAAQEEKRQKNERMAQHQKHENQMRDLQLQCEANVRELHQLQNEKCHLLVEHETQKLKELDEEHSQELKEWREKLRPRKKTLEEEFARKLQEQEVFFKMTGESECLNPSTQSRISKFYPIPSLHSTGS
Procedure: as §1

BARK1 = BARK1 (Homo sapiens (Human), UniProt P25098); test: KiNativ assay; type: binding; settings: H929 live cell
Procedure: as §1

LATS1 = LATS1 (Homo sapiens (Human), UniProt O95835); test: KiNativ assay; type: binding; settings: H929 live cell
Procedure: as §1

MST4, YSK1 = test: KiNativ assay; type: binding; settings: H929 live cell
Procedure: as §1

DGKH = DGKH (Homo sapiens (Human), UniProt Q86XP1); test: KiNativ assay; type: binding; settings: H929 live cell
Procedure: as §1

CK1g3 = CK1g3 (Homo sapiens (Human), UniProt Q9Y6M4); test: KiNativ assay; type: binding; settings: H929 live cell
Sequence of CK1g3 (Q9Y6M4 whole entry): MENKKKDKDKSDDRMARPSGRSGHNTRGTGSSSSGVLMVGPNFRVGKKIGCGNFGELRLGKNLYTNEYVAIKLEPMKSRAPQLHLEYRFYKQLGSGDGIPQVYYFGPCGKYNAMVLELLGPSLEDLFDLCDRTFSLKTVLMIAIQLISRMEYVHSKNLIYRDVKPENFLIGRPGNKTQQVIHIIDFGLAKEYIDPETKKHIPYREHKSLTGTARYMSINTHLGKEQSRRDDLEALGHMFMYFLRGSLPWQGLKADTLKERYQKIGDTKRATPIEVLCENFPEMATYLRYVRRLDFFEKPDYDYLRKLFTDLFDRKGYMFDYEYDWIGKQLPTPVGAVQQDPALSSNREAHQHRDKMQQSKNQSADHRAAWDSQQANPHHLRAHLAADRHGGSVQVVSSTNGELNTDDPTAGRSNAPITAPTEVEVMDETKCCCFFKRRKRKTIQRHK
Procedure: as §1

[1] = test system: CaMK2a, CaMK2b, CaMK2d, CaMK2g; test: KiNativ assay; type: binding; settings: H929 live cell
Procedure: as §1

FER = FER (Homo sapiens (Human), UniProt P16591); test: KiNativ assay; type: binding; settings: H929 live cell
Procedure: as §1

STK24 (MST3) = STK24 (MST3) (Homo sapiens (Human), UniProt Q9Y6E0); test: Z-lyte biochemical IC50 assay (Invitrogen); settings: ATP concentration matched the Km
Method in brief: (§2)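 FRET-based Z-lyte kinase assays run at Invitrogen, ATP at each kinase's Km; for STK4, 6.25-160 ng enzyme with 2 μM Ser/Thr 07 peptide in HEPES pH 7.5, MgCl2, EGTA, Brij-35, 1 h reaction then development reagent. 10-point 3-fold titration from 10 μM.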

STK4 (MST1) = STK4 (MST1) (Homo sapiens (Human), UniProt Q13043); test: Z-lyte biochemical IC50 assay (Invitrogen); settings: ATP concentration matched the Km
Method in brief: as §2

[2] = range class, read-out: % inhibition

CN(C1CC1)S(=O)(=O)c1ccc(-c2cnc(N)c(-c3ccc4c(c3)CCNC4=O)c2)c(F)c1 [Compound I-28, 4-(6-amino-5-(1-oxo-1,2,3,4-tetrahydroisoquinolin-6-yl)pyridin-3-yl)-N-cyclopropyl-3-fluoro-N-methylbenzenesulfonamide]
% inhibition (range) (p38d, p38g; 10 μM): 0.0%
inhibition (10 μM) (p38d, p38g): 7.7%
inhibition at 10 µM (NEK9; read-out: % inhibition (range)): 0%
inhibition at 10 µM (NEK9; read-out: inhibition (10 μM)): -4.7%
inhibition at 10 µM (MSK2 domain1; read-out: % inhibition (range)): 0%
inhibition at 10 µM (MSK2 domain1; read-out: inhibition (10 μM)): 2.9%
inhibition at 10 µM (RSK1 domain2; read-out: % inhibition (range)): 0%
inhibition at 10 µM (RSK1 domain2; read-out: inhibition (10 μM)): 3.8%
inhibition at 10 µM (p70S6K; read-out: % inhibition (range)): 0%
inhibition at 10 µM (p70S6K; read-out: inhibition (10 μM)): -22.7%
inhibition at 10 µM (CLK2; read-out: % inhibition (range)): 35 to 50%
inhibition at 10 µM (CLK2; read-out:): 42.7%
inhibition at 10 µM (MSK1 domain1; read-out: % inhibition (range)): 0%
inhibition at 10 µM (MSK1 domain1; read-out: inhibition (10 μM)): 5.4%
inhibition at 10 µM (p70S6Kb; read-out: % inhibition (range)): 0%
inhibition at 10 µM (p70S6Kb; read-out: inhibition (10 μM)): -14.4%
inhibition at 10 µM (STLK6; read-out: % inhibition (range)): 0%
inhibition at 10 µM (STLK6; read-out: inhibition (10 μM)): 1.4%
inhibition at 10 µM (MAP3K4; read-out: % inhibition (range)): 0%
inhibition at 10 µM (MAP3K4; read-out: inhibition (10 μM)): -8.8%
% inhibition (range) (Wnk1, Wnk2, Wnk3; 10 μM): 0.0%
inhibition (10 μM) (Wnk1, Wnk2, Wnk3): −31.8%
inhibition at 10 µM (MAP3K5; read-out: % inhibition (range)): 0%
inhibition at 10 µM (MAP3K5; read-out: inhibition (10 μM)): -6.2%
inhibition at 10 µM (MST2; read-out: % inhibition (range)): 75 to 90%
inhibition at 10 µM (MST2; read-out: inhibition (10 μM)): 89.3%
inhibition at 10 µM (MST3; read-out: % inhibition (range)): 50 to 75%
inhibition at 10 µM (MST3; read-out: inhibition (10 μM)): 72.3%
inhibition at 10 µM (RSK2 domain1; read-out: % inhibition (range)): 0%
inhibition at 10 µM (RSK2 domain1; read-out: inhibition (10 μM)): 20.3%
% inhibition (range) (TAO1, TAO3; 10 μM): 75-90%
inhibition (10 μM) (TAO1, TAO3): 85.5%
inhibition at 10 µM (Erk1; read-out: % inhibition (range)): 0%
inhibition at 10 µM (Erk1; read-out: inhibition (10 μM)): 11%
inhibition at 10 µM (SNRK; read-out: % inhibition (range)): 0%
inhibition at 10 µM (SNRK; read-out: inhibition (10 μM)): 0%
inhibition at 10 µM (MARK2; read-out: % inhibition (range)): 0%
inhibition at 10 µM (MARK2; read-out: inhibition (10 μM)): 4.6%
inhibition at 10 µM (SLK; read-out: % inhibition (range)): 50 to 75%
inhibition at 10 µM (SLK; read-out: inhibition (10 μM)): 58.9%
inhibition at 10 µM (BARK1; read-out: % inhibition (range)): 0%
inhibition at 10 µM (BARK1; read-out: inhibition (10 μM)): 22.3%
inhibition at 10 µM (LATS1; read-out: % inhibition (range)): 0%
inhibition at 10 µM (LATS1; read-out: inhibition (10 μM)): 4.8%
% inhibition (range) (MST4, YSK1; 10 μM): 75-90%
inhibition (10 μM) (MST4, YSK1): 76.7%
inhibition at 10 µM (DGKH; read-out: % inhibition (range)): 0%
inhibition at 10 µM (DGKH; read-out: inhibition (10 μM)): 10.9%
inhibition at 10 µM (CK1g3; read-out: % inhibition (range)): > 90%
inhibition at 10 µM (CK1g3; read-out: inhibition (10 μM)): 93.8%
% inhibition (range) ([1]; 10 μM): 0.0%
inhibition (10 μM) [1]: 1.4%
inhibition at 10 µM (FER; read-out: % inhibition (range)): 0%
inhibition at 10 µM (FER; read-out: inhibition (10 μM)): -3.9%
IC50 (STK24 (MST3)): 40 to 200 nM
IC50 (STK4 (MST1)): < 40 nM

COc1cc(NS(=O)(=O)C2CC2)ccc1-c1cnc(N)c(-c2ccc3c(c2)CCNC3=O)c1 [Compound I-50, N-(4-(6-amino-5-(1-oxo-1,2,3,4-tetrahydroisoquinolin-6-yl)pyridin-3-yl)-3-methoxyphenyl) cyclopropanesulfonamide]
% inhibition (p38d, p38g; 10 μM, range class): 0.0%
inhibition (10 μM) (p38d, p38g): 7.4%
inhibition at 10 µM (NEK9; [2]): 0%
inhibition at 10 µM (NEK9; read-out: inhibition (10 μM)): 5.9%
inhibition at 10 µM (MSK2 domain1; [2]): 0%
inhibition at 10 µM (MSK2 domain1; read-out: inhibition (10 μM)): -2.8%
inhibition at 10 µM (RSK1 domain2; [2]): 0%
inhibition at 10 µM (RSK1 domain2; read-out: inhibition (10 μM)): 1%
inhibition at 10 µM (p70S6K; [2]): 0%
inhibition at 10 µM (p70S6K; read-out: inhibition (10 μM)): 2.4%
inhibition at 10 µM (CLK2; [2]): 0%
inhibition at 10 µM (CLK2; read-out:): 10.8%
inhibition at 10 µM (MSK1 domain1; [2]): 0%
inhibition at 10 µM (MSK1 domain1; read-out: inhibition (10 μM)): 0.1%
inhibition at 10 µM (p70S6Kb; [2]): 0%
inhibition at 10 µM (p70S6Kb; read-out: inhibition (10 μM)): 14%
inhibition at 10 µM (STLK6; [2]): 0%
inhibition at 10 µM (STLK6; read-out: inhibition (10 μM)): -15%
inhibition at 10 µM (MAP3K4; [2]): 0%
inhibition at 10 µM (MAP3K4; read-out: inhibition (10 μM)): 9.5%
% inhibition (Wnk1, Wnk2, Wnk3; 10 μM, range class): 0.0%
inhibition (10 μM) (Wnk1, Wnk2, Wnk3): 15.9%
inhibition at 10 µM (MAP3K5; [2]): 0%
inhibition at 10 µM (MAP3K5; read-out: inhibition (10 μM)): 27.5%
inhibition at 10 µM (MST2; [2]): > 90%
inhibition at 10 µM (MST2; read-out: inhibition (10 μM)): 97.5%
inhibition at 10 µM (MST3; [2]): 0%
inhibition at 10 µM (MST3; read-out: inhibition (10 μM)): 20%
inhibition at 10 µM (RSK2 domain1; [2]): 0%
inhibition at 10 µM (RSK2 domain1; read-out: inhibition (10 μM)): 21%
% inhibition (TAO1, TAO3; 10 μM, range class): 0.0%
inhibition (10 μM) (TAO1, TAO3): 17.8%
inhibition at 10 µM (Erk1; [2]): 0%
inhibition at 10 µM (Erk1; read-out: inhibition (10 μM)): 29%
inhibition at 10 µM (SNRK; [2]): 0%
inhibition at 10 µM (SNRK; read-out: inhibition (10 μM)): 33.2%
inhibition at 10 µM (MARK2; [2]): 0%
inhibition at 10 µM (MARK2; read-out: inhibition (10 μM)): -8.6%
inhibition at 10 µM (SLK; [2]): 50 to 75%
inhibition at 10 µM (SLK; read-out: inhibition (10 μM)): 70.6%
inhibition at 10 µM (BARK1; [2]): 0%
inhibition at 10 µM (BARK1; read-out: inhibition (10 μM)): -19.4%
inhibition at 10 µM (LATS1; [2]): 0%
inhibition at 10 µM (LATS1; read-out: inhibition (10 μM)): 2.9%
% inhibition (MST4, YSK1; 10 μM, range class): 35-40%
inhibition (10 μM) (MST4, YSK1): 35.4%
inhibition at 10 µM (DGKH; [2]): 0%
inhibition at 10 µM (DGKH; read-out: inhibition (10 μM)): 6.3%
inhibition at 10 µM (CK1g3; [2]): 75 to 90%
inhibition at 10 µM (CK1g3; read-out: inhibition (10 μM)): 77.1%
% inhibition ([1]; 10 μM, range class): 0.0%
inhibition (10 μM) [1]: 26.8%
inhibition at 10 µM (FER; [2]): 0%
inhibition at 10 µM (FER; read-out: inhibition (10 μM)): 16.3%
IC50 (STK24 (MST3)): 200 to 900 nM
IC50 (STK4 (MST1)): < 40 nM
